In patent publication US10485235B2, “Aryloxypyrimidinyl ethers as herbicides” (FMC Corporation, priority 2015, dated 2019):

Tests used:
Type in all cases: in vivo
[1] = system: barnyardgrass (Echinochloa crus-galli); test: Test A preemergence, barnyardgrass; conditions: Preemergence, 0 to 100 scale (0 no effect, 100 complete control)
How it was run: (§1)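 Ratings run 0–100, where 100 is complete control, and were scored visually against untreated plants about 10 days after treatment under greenhouse conditions. Formulated chemicals were sprayed either onto the soil surface after seeding (preemergence) or onto one- to two-leaf seedlings 2–10 cm high (postemergence).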

kochia (Kochia scoparia) [2] = test: Test A preemergence, kochia; conditions: Preemergence, 0 to 100 scale (0 no effect, 100 complete control)
How it was run: as §1

[3] = system: ragweed (common ragweed, Ambrosia elatior); test: Test A preemergence, ragweed; conditions: Preemergence, 0 to 100 scale (0 no effect, 100 complete control)
How it was run: as §1

[4] = system: ryegrass, Italian (Italian ryegrass, Lolium multiflorum); test: Test A preemergence, Italian ryegrass; conditions: Preemergence, 0 to 100 scale (0 no effect, 100 complete control)
How it was run: as §1

[5] = system: foxtail, giant (giant foxtail, Setaria faberii); test: Test A preemergence, giant foxtail; conditions: Preemergence, 0 to 100 scale (0 no effect, 100 complete control)
How it was run: as §1

[6] = system: pigweed (Amaranthus retroflexus); test: Test A preemergence, pigweed; conditions: Preemergence, 0 to 100 scale (0 no effect, 100 complete control)
How it was run: as §1

[7] = system: barnyardgrass (Echinochloa crus-galli); test: Test A postemergence, barnyardgrass; conditions: postemergence, 0 to 100 scale, 0 is no effect, 100 is complete control, approximately 10 days
How it was run: as §1

kochia (Kochia scoparia) [8] = test: Test A postemergence, kochia; conditions: postemergence, 0 to 100 scale, 0 is no effect, 100 is complete control, approximately 10 days
How it was run: as §1

[9] = system: ragweed (common ragweed, Ambrosia elatior); test: Test A postemergence, ragweed; conditions: postemergence, 0 to 100 scale, 0 is no effect, 100 is complete control, approximately 10 days
How it was run: as §1

[10] = system: ryegrass, Italian (Italian ryegrass, Lolium multiflorum); test: Test A postemergence, Italian ryegrass; conditions: postemergence, 0 to 100 scale, 0 is no effect, 100 is complete control, approximately 10 days
How it was run: as §1

[11] = system: foxtail, giant (giant foxtail, Setaria faberii); test: Test A postemergence, giant foxtail; conditions: postemergence, 0 to 100 scale, 0 is no effect, 100 is complete control, approximately 10 days
How it was run: as §1

[12] = system: pigweed (Amaranthus retroflexus); test: Test A postemergence, pigweed; conditions: postemergence, 0 to 100 scale, 0 is no effect, 100 is complete control, approximately 10 days
How it was run: as §1

[13] = system: wheat (Triticum aestivum); test: Test A postemergence, wheat; conditions: postemergence, 0 to 100 scale, 0 is no effect, 100 is complete control, approximately 10 days
How it was run: as §1

corn (Zea mays) = test: Test A postemergence, corn; conditions: postemergence, 0 to 100 scale, 0 is no effect, 100 is complete control, approximately 10 days
How it was run: as §1

[14] = system: blackgrass (Alopecurus myosuroides); test: Test A postemergence, blackgrass; conditions: postemergence, 0 to 100 scale, 0 is no effect, 100 is complete control, approximately 10 days
How it was run: as §1

[15] = system: galium (catchweed bedstraw, Galium aparine); test: Test A postemergence, galium; conditions: postemergence, 0 to 100 scale, 0 is no effect, 100 is complete control, approximately 10 days
How it was run: as §1

rice (Oryza sativa) = test: Test B flooded paddy test, rice; conditions: 250 g ai/ha, Flood; visual rating after 13 to 15 days; scale 0 to 100, 0 is no effect, 100 is complete control
How it was run: (§2)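 Visual ratings, 0 = no effect to 100 = complete control, versus controls after 13 to 15 days in greenhouse. Test compounds were added to paddy water kept 3 cm over the soil surface, on plants at 2-leaf stage.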

[16] = system: sedge, umbrella (small-flower umbrella sedge, Cyperus difformis); test: Test B flooded paddy test, umbrella sedge; conditions: 250 g ai/ha, Flood; visual rating after 13 to 15 days; scale 0 to 100, 0 is no effect, 100 is complete control
How it was run: as §2

[17] = system: ducksalad (Heteranthera limosa); test: Test B flooded paddy test, ducksalad; conditions: 250 g ai/ha, Flood; visual rating after 13 to 15 days; scale 0 to 100, 0 is no effect, 100 is complete control
How it was run: as §2

[18] = system: barnyardgrass (Echinochloa crus-galli); test: Test B flooded paddy test, barnyardgrass; conditions: 250 g ai/ha, Flood; visual rating after 13 to 15 days; scale 0 to 100, 0 is no effect, 100 is complete control
How it was run: as §2

| Compound | Plant response rating, Barnyardgrass ([1]; 31 g ai/ha) | Plant response rating, Barnyardgrass ([1]; 125 g ai/ha) | Plant response rating, Kochia (kochia (Kochia scoparia) [2]; 31 g ai/ha) | Plant response rating, Kochia (kochia (Kochia scoparia) [2]; 125 g ai/ha) | Plant response rating, Ragweed ([3]; 31 g ai/ha) | Plant response rating, Ragweed ([3]; 125 g ai/ha) | Plant response rating, Ryegrass, Italian ([4]; 31 g ai/ha) | Plant response rating, Ryegrass, Italian ([4]; 125 g ai/ha) | Plant response rating, Foxtail, Giant ([5]; 31 g ai/ha) | Plant response rating, Foxtail, Giant ([5]; 125 g ai/ha) | Plant response rating, Pigweed ([6]; 31 g ai/ha) | Plant response rating, Pigweed ([6]; 125 g ai/ha) | Plant response rating, Barnyardgrass ([7]; 31 g ai/ha) | Plant response rating, Barnyardgrass ([7]; 125 g ai/ha) | Plant response rating, Kochia (kochia (Kochia scoparia) [8]; 31 g ai/ha) | Plant response rating, Kochia (kochia (Kochia scoparia) [8]; 125 g ai/ha) | Plant response rating, Ragweed ([9]; 31 g ai/ha) | Plant response rating, Ragweed ([9]; 125 g ai/ha) | Plant response rating, Ryegrass, Italian ([10]; 31 g ai/ha) | Plant response rating, Ryegrass, Italian ([10]; 125 g ai/ha) | also measured |
| --- | --- | --- | --- | --- | --- | --- | --- | --- | --- | --- | --- | --- | --- | --- | --- | --- | --- | --- | --- | --- | --- |
| FC(F)(F)/C=C/COc1c(I)cccc1Oc1ncc(Cl)cn1 [Compound 61] | 0 | 20 | 0 | 0 | 0 | 0 | 0 | 0 | 0 | 80 | 0 | 70 | 0 | 50 | 40 | 90 | 0 | 0 | 0 | 0 | Plant response rating, Foxtail, Giant ([11]; 31 g ai/ha): 0; Plant response rating, Foxtail, Giant ([11]; 125 g ai/ha): 30; Plant response rating, Pigweed ([12]; 31 g ai/ha): 80; Plant response rating, Pigweed ([12]; 125 g ai/ha): 90; Plant response rating, Wheat ([13]; 31 g ai/ha): 0; Plant response rating, Wheat ([13]; 125 g ai/ha): 0; Plant response rating, Corn (corn (Zea mays); 31 g ai/ha): 10; Plant response rating, Corn (corn (Zea mays); 125 g ai/ha): 30; Plant response rating, Blackgrass ([14]; 31 g ai/ha): 0; Plant response rating, Blackgrass ([14]; 125 g ai/ha): 0; Plant response rating, Galium ([15]; 31 g ai/ha): 20; Plant response rating, Galium ([15]; 125 g ai/ha): 50; Plant response rating, Rice (rice (Oryza sativa)): 25; Plant response rating, Sedge, Umbrella [16]: 95; Plant response rating, Ducksalad [17]: 100; Plant response rating, Barnyardgrass [18]: 20 |
| N#Cc1cccc(Oc2ncc(Cl)cn2)c1OCC(=O)CCC(F)(F)F [Compound 62] | 0 | 0 | 0 | 0 | 0 | 0 | 0 | 0 | 0 | 0 | 0 | 0 | 0 | 0 | 0 | 0 | 0 | 0 | 0 | 0 | Plant response rating, Foxtail, Giant ([11]; 31 g ai/ha): 0; Plant response rating, Foxtail, Giant ([11]; 125 g ai/ha): 0; Plant response rating, Pigweed ([12]; 31 g ai/ha): 0; Plant response rating, Pigweed ([12]; 125 g ai/ha): 0; Plant response rating, Wheat ([13]; 31 g ai/ha): 0; Plant response rating, Wheat ([13]; 125 g ai/ha): 0; Plant response rating, Corn (corn (Zea mays); 31 g ai/ha): 0; Plant response rating, Corn (corn (Zea mays); 125 g ai/ha): 0; Plant response rating, Blackgrass ([14]; 31 g ai/ha): 0; Plant response rating, Blackgrass ([14]; 125 g ai/ha): 0; Plant response rating, Galium ([15]; 31 g ai/ha): 0; Plant response rating, Galium ([15]; 125 g ai/ha): 0; Plant response rating, Rice (rice (Oryza sativa)): 0; Plant response rating, Sedge, Umbrella [16]: 0; Plant response rating, Ducksalad [17]: 0; Plant response rating, Barnyardgrass [18]: 0 |
| Cc1cccc(Oc2ncc(Cl)cn2)c1OCCC(F)(F)F [Compound 64] | 10 | 60 | 0 | 0 | 0 | 0 | 0 | 0 | 0 | 20 | 0 | 100 | 0 | 10 | 10 | 20 | 0 | 0 | 0 | 0 | Plant response rating, Foxtail, Giant ([11]; 31 g ai/ha): 0; Plant response rating, Foxtail, Giant ([11]; 125 g ai/ha): 10; Plant response rating, Pigweed ([12]; 31 g ai/ha): 20; Plant response rating, Pigweed ([12]; 125 g ai/ha): 30; Plant response rating, Wheat ([13]; 31 g ai/ha): 0; Plant response rating, Wheat ([13]; 125 g ai/ha): 0; Plant response rating, Corn (corn (Zea mays); 31 g ai/ha): 0; Plant response rating, Corn (corn (Zea mays); 125 g ai/ha): 10; Plant response rating, Blackgrass ([14]; 31 g ai/ha): 0; Plant response rating, Blackgrass ([14]; 125 g ai/ha): 10; Plant response rating, Galium ([15]; 31 g ai/ha): 0; Plant response rating, Galium ([15]; 125 g ai/ha): 0; Plant response rating, Rice (rice (Oryza sativa)): 20; Plant response rating, Sedge, Umbrella [16]: 90; Plant response rating, Ducksalad [17]: 85; Plant response rating, Barnyardgrass [18]: 0 |
| FCCCOc1c(I)cccc1Oc1ncc(Cl)cn1 [Compound 66] | 20 | 70 | 0 | 60 | 0 | 0 | 0 | 10 | 50 | 100 | 70 | 100 | 0 | 50 | 90 | 100 | 0 | 0 | 0 | 20 | Plant response rating, Foxtail, Giant ([11]; 31 g ai/ha): 10; Plant response rating, Foxtail, Giant ([11]; 125 g ai/ha): 30; Plant response rating, Pigweed ([12]; 31 g ai/ha): 90; Plant response rating, Pigweed ([12]; 125 g ai/ha): 100; Plant response rating, Wheat ([13]; 31 g ai/ha): 0; Plant response rating, Wheat ([13]; 125 g ai/ha): 0; Plant response rating, Corn (corn (Zea mays); 31 g ai/ha): 0; Plant response rating, Corn (corn (Zea mays); 125 g ai/ha): 30; Plant response rating, Blackgrass ([14]; 31 g ai/ha): 10; Plant response rating, Blackgrass ([14]; 125 g ai/ha): 30; Plant response rating, Galium ([15]; 31 g ai/ha): 40; Plant response rating, Galium ([15]; 125 g ai/ha): 90; Plant response rating, Rice (rice (Oryza sativa)): 20; Plant response rating, Sedge, Umbrella [16]: 100; Plant response rating, Ducksalad [17]: 100; Plant response rating, Barnyardgrass [18]: 0 |
